One series concerns HCMV AD169. As to the kind of experiment: HCMV plaque reduction assay, MRC-5 cells, strain AD169. It is filed as cell-based, Human cytomegalovirus. Conditions: hCMV AD169, MRC5 cells, plaque assay, 6-days duration.
For series [1], the system named is Venezuelan equine encephalitis virus (VEEV).
Series [2] has as its system Japanese encephalitis virus (JEV).
Series [3] concerns enterovirus-68 (EV-68).
Series [4] has as its system Rift Valley fever virus (RVFV).
The subject of series [5] is enterovirus-68 (EV-68). As to the kind of experiment: organism not typed. Conditions: RD, read-out: EQ50.
Series [6] has as its target T1, SARS-Cov2 RdRp (nsp12-nsp7-nsp8) (Severe acute respiratory syndrome coronavirus 2, UniProt P0DTD1). The format is biochemical. Conditions: primer extension; analog at 100 uM, printed 100 mM.
Series [7] addresses T1, SARS-Cov2 RdRp (nsp12-nsp7-nsp8). It is filed as biochemical. Conditions: after addition of GTP and CTP (third and fourth nucleotides).
A short description of series [8]: Liver (hepatic) S9 stability, human.
Series [9] can be described thus: Liver (hepatic) S9 stability, rat.
Series [10] deals with Tacaribe virus (TCRV, TRVL-11573). Also on record: SI50 (SI): unit not given beside the values.
Series [11] has as its system dengue virus-2 (DENV-2, New Guinea C). Conditions: SI = CC50/EC50.
Series [12] relates to Epstein-Barr virus (EBV), Akata strain. Also on record: SI50 / SI90: unit not given beside the values.
The subject of series [13] is BK virus (BKV), Gardner strain. Also on record: SI50 / SI90: unit not given beside the values.
Series [14] relates to SARS-CoV-2 (USA-WA1/2020).
The test system of series [15] is influenza/California/07/2009 (H1N1)pdm09.
The subject of series [16] is respiratory syncytial virus (RSV, A2).
Series [17] has as its system Influenza B/Florida/4/2006 (Yamagata).
Series [18] has as its system enterovirus-68 (EV-68, US/DY/14-18953).
Another series deals with MERS-CoV (EMC). The format is cell-based. Conditions: SI = CC50/EC50.
Setting [19] is: Vero 76 cells without virus, test compounds.

pEC50: −log10 of the molar value. ≈ marks a conversion by molar mass, not a printed value. Read-outs that look alike come from different tables or passages of the source.

The values below come from US12466849B2, “Anti-viral and anti-tumoral compounds” (YEDA RESEARCH AND DEVELOPMENT CO. LTD, priority 2020, dated 2025).

Usually pEC50 stands for the negative decadic logarithm of the EC50, by convention in mol/L. A word on the microsomal CLint: it is a measure of how fast metabolising enzymes remove a compound, apart from limits set by blood flow. One may read the half-life as the time in which the quantity being followed falls by half. Usually EC90 stands for the concentration at which the effect reaches the 90% level.

As for `O=c1ccn([C@@H]2OC(CO)=C[C@H]2O)c(=O)[nH]1` [AB21649], the pEC50 is below 4.00 in the series with HCMV AD169; below 2.96 in series [1] (VEEV, Vero 76 cells, test compounds); 3.51 in the series with Influenza B; below 2.77 in series [2]; below 3.41 in the series on enterovirus-68 (EV-68) [3] (33°C); 3.10 in the series on influenza A(H5N1) (influenza A(H5N1), MDCK cells, test compounds). For the same molecule, the pEC50 in the series with adenovirus-5 (Ad5) was below 2.70; in the series with poliovirus-1 (POV-1) (POV-1, Vero 76 cells, test compounds) it was below 3.00; with RSV it was below 2.72; in the series on Powassan virus (POWV) (POWV, BHK-21 cells, test compounds) it was below 2.70; in the series on influenza A(H1N1), 3.25; in the series with SARS-CoV (SARS-CoV, Vero 76 cells, test compounds), below 2.82. Further, the pEC50 in the series on Yellow fever virus (YFV) (YFV, Huh7 cells, test compounds) is below 2.70; in the series on TCRV, below 2.92; with Zika virus, below 2.82; in [4] (RVFV, Vero 76 cells, test compounds) it was below 2.96; in the series on dengue virus-2 (DV-2), below 2.70; in the series on SARS-CoV-2, below 2.70. In the series with West Nile virus (WNV), the pEC50 was below 2.85. For the same molecule, the SI in series [1] (VEEV, SI = CC50/EC50) was determined as 0; in the series with Influenza B (Influenza B, SI = CC50/EC50), 4.2; in series [2] (JEV, SI = CC50/EC50), 0; in the series with enterovirus-68 (EV-68) [3] (EV-68, SI = CC50/EC50), 0; with influenza A(H5N1) (influenza A(H5N1), SI = CC50/EC50), 1.6; in the series on adenovirus-5 (Ad5) (Ad5, SI = CC50/EC50), 0. The SI in the series with poliovirus-1 (POV-1) (POV-1, SI = CC50/EC50) is on record as 0; in the series on RSV (RSV, SI = CC50/EC50), 0; with Powassan virus (POWV) (POWV, SI = CC50/EC50), 0; in the series on influenza A(H1N1) (influenza A(H1N1), SI = CC50/EC50), 2.5; in the series with SARS-CoV (SARS-CoV, SI = CC50/EC50), 0; in the series with Yellow fever virus (YFV) (YFV, SI = CC50/EC50), 0. In addition, the SI was found to be 0 with TCRV; 0 in the series on Zika virus (Zika, SI = CC50/EC50); 0 in [4] (RVFV, SI = CC50/EC50); 0 in the series on dengue virus-2 (DV-2) (DV-2, SI = CC50/EC50); 0 with SARS-CoV-2 (SARS-CoV-2, SI = CC50/EC50); 0 in the series on West Nile virus (WNV) (WNV, SI = CC50/EC50). The CC50 is 1100 µM in series [1] (setting [19]); 1300 µM in the series with Influenza B; 1700 µM in series [2]; 390 µM in the series on enterovirus-68 (EV-68) [3]; above 100 µM in the series with MRC-5 cells; 1300 µM in the series with influenza A(H5N1) (MDCK cells without virus, test compounds). The CC50 with adenovirus-5 (Ad5) was above 2000 µM; in the series with poliovirus-1 (POV-1) (setting [19]), 1000 µM; with RSV, 1900 µM; in the series with Powassan virus (POWV) (BHK-21 cells without virus, test compounds) it was above 2000 µM; with influenza A(H1N1), 1400 µM; in the series with SARS-CoV (setting [19]), 1500 µM. In addition, the CC50 with Yellow fever virus (YFV) (Huh7 cells without virus, test compounds) is above 2000 µM; with TCRV, 1200 µM; with Zika virus it was 1500 µM; in series [4] (setting [19]), 1100 µM; with dengue virus-2 (DV-2) it was above 2000 µM; in the series on SARS-CoV-2, above 2000 µM. In the series on West Nile virus (WNV), this molecule registered a CC50 of 1400 µM. The “antiviral activity against Influenza B (in words)” value with Influenza B is “exhibits antiviral activity”. The “antiviral activity against Influenza (H5N1) (in words)” value in the series with influenza A(H5N1) (Table 11) is reported as “exhibits antiviral activity”. Also, the “antiviral activity against Influenza (H1N1) (in words)” value in the series on influenza A(H1N1) is reported as “exhibits antiviral activity”.
In turn, `CCOC(=O)c1ccc(OCCC2CCN(c3ccc(C)nn3)CC2)cc1` [Pirodavir] came in with a CC50 in the series with enterovirus-68 (EV-68) [3] (human) of 4.3 mg/L. Further, the EC50 in the series on enterovirus-68 (EV-68) [5] was found to be 0.039 mg/L (≈ 0.106 µM).
On to `N#C[C@@]1(c2ccc3c(N)ncnn23)O[C@H](COP(=O)(O)OP(=O)(O)OP(=O)(O)O)[C@@H](O)[C@H]1O` [REM-TP, Remdesivir-TP, reference compound], for which the “incorporation into RNA by SARS-Cov2 RdRp (in words)” value (“incorporation into RNA” below) in [6] is “incorporated into RNA as ATP analogs”. In addition, in series [7], the “chain termination of RNA synthesis (in words)” value (“chain termination” below) is “did not cause chain termination”.
Molecule `COc1ccc2c(c1)[C@]13CCCC[C@@H]1[C@H](C2)N(C)CC3` [Dextromethorphan] returned a T1/2 in series [8] (human liver S9, 0.5 mg/mL, NADPH incubation (Table 24 gives without NADPH)) of 94.0 min. Also, the microsomal CLint at 1 μM in [8] (human, s9) turned out to be 14.7 µL/min/mg; in [9] (s9), 23.6 µL/min/mg. The CLhep in [8] (human, predicted from S9 CLint (well-stirred model)) was 0.858 L/h/kg; in series [9] (predicted from S9 CLint (well-stirred model)), 2.23 L/h/kg. The molecule also gave a half-life at 1 μM in series [9] (s9) of 58.8 min.
As for `N#C[C@@]1(c2ccc3c(N)ncnn23)OC(COP(=O)(O)OP(=O)(O)OP(=O)(O)O)=C[C@H]1O` [ddhREM-TP, ddhRemdesivir], the “incorporation into RNA” value in [6] is listed as “incorporated into RNA as ATP analogs”. The “chain termination” value in [7] is “caused termination of RNA synthesis”.
On to `Nc1nc2c(ncn2[C@@H]2OC(COP(=O)(O)OP(=O)(O)OP(=O)(O)O)=C[C@H]2O)c(=O)[nH]1` [ddhGTP, 3′-deoxy-3′,4′-didehydro-guanosine-triphosphate], for which the “incorporation into RNA” value in [6] was “incorporates onto RNA as GTP analog”. Also, the “chain termination” value in series [7] was “caused chain termination of RNA synthesis”.
Consider `CC(C)(C)C(=O)SCCOP(=O)(OCCSC(=O)C(C)(C)C)OCC1=CC(O)C(n2cnc3c(N)ncnc32)O1` (stereo not shown) [SATE-ddhA], for which the CC50 in [10] turned out to be 58 µM; in series [12], 55.8 µM; in series [13], 89.7 µM; in series [14], 49 µM; in series [15], 180 µM; in [16], 170 µM. The CC50 in series [17] was 180 µM; in [18], 2 µM. Further, the “SI50 (SI)” value in series [10] was 0; in series [11], 0; in [14] (SARS-CoV-2, SI = CC50/EC50) it was 0; in [15] (Influenza(H1N1), SI = CC50/EC50), 0; in series [16] (RSV, SI = CC50/EC50), 0; in series [17] (Influenza B, SI = CC50/EC50), 0. For the same molecule, the “SI50 (SI)” value in series [18] (EV-68, SI = CC50/EC50) was 0; in the series with MERS-CoV (EMC) it was 0. In addition, the values for the Activity result in [12] and in [13] were “MOD (key: NA (Not Active) SI50 = 0-3.9; MOD (Moderately Active) SI50 = 4-9.9; HI (Highly Active) SI50 = ≥10)” and “NA (key: NA (Not Active) SI50 = 0-3.9; MOD (Moderately Active) SI50 = 4-9.9; HI (Highly Active) SI50 = ≥10)”, respectively. Further, the results for the pEC50 in series [12] and in series [13] were 4.89 and below 4.52, respectively. In addition, the 90% effect concentration (EC90) in series [12] is 26.8 µM; in series [13], above 30 µM. Also, the SI50 in series [12] is reported as 4; in [13], below 3. Besides, the SI90 in series [12] was 2; in series [13], below 3. Besides, the “activity against EBV (in words)” value in series [12] was “moderately active”.
